The source made the active and inactive calls.
Tests used:
[1] = viability of uninfected HEp-2 cells – cell-based, HTS, cytotoxicity control for RSV inhibitor project, dose response (AID 2410); format: functional; conditions: human respiratory syncytial virus
[2] = cells
[3] = A Cell Based Secondary Assay To Explore Cytotoxicity of Compounds that Sensitize Mycobacterium Tuberculosis to Beta-Lactam Antibiotics.; format: functional
[4] = biological target: T1, Heat shock factor protein 1 (Mus musculus, UniProt P38532); assay: decrease of HSF1-responsive luciferase luminescence – cell-based, NIH3T3, dose retest, confirmation (AID 2382); format: functional;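 further: NIH3T3 fibroblasts with HSF1-driven luciferase reporter stressed by proteasome inhibitor MG132; luminescence from HSF1-driven luciferase expression after 8 hours of MG132 stress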
T1 sequence (P38532 whole entry): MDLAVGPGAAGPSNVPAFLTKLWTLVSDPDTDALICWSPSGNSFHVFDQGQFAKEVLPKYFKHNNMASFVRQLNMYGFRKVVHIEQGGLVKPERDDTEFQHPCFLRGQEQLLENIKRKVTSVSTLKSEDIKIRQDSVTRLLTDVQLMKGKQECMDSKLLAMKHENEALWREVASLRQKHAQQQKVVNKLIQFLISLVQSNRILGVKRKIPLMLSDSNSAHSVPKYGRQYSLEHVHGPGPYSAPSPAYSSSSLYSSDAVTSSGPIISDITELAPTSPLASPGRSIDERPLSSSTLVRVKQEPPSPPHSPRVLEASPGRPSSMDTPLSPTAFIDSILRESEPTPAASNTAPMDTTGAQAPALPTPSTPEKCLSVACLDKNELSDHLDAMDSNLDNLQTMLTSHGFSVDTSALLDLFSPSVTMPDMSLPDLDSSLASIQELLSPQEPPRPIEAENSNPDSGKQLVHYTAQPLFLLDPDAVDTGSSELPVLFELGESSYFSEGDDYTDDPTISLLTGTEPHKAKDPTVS

[5] = Trypanosoma cruzi growth suppression in host cells – NIH3T3 host cells, beta-gal luminescence, confirmation (AID 2044); format: functional, cell-based;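 further: intracellular parasites grown in NIH/3T3 mouse fibroblasts as host cells; luminescent beta-galactosidase reporter signal from transgenic T. cruzi replicating inside host cells; inhibitors lower the luminescence signal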
[6] = NIH3T3 cell viability loss – ATP luminescence, mouse fibroblasts, counter-screen, dose response (AID 2010); format: functional, cell-based;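 further: cells exposed to compound for about 90 hours before reading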
[7] = biological target: T2, Luciferin 4-monooxygenase (Photinus pyralis, UniProt P08659); assay: Counter Screen for Luciferase-based Assay Positives. [Related pubchem assays: 620, 618, 411 ]
[8] = test system: HT-1080; assay: HT1080 cell viability loss – fluorescence readout (AID 620); format: functional, cell-based; conditions: Homo sapiens
[9] = biological target: FAD-linked sulfhydryl oxidase ALR (Homo sapiens, UniProt P55789); assay: ALR-catalysed DTT oxidation blockers – biochemical, H2O2 detection, luminescence, cherry-pick, dose response (AID 493248)
[10] = biological target: T3, Coagulation factor XII (Homo sapiens, UniProt P00748); assay: activated coagulation factor XII inhibitor potency, concentration-effect curve, cell-free (AID 716); format: functional
T3 sequence (P00748 whole entry): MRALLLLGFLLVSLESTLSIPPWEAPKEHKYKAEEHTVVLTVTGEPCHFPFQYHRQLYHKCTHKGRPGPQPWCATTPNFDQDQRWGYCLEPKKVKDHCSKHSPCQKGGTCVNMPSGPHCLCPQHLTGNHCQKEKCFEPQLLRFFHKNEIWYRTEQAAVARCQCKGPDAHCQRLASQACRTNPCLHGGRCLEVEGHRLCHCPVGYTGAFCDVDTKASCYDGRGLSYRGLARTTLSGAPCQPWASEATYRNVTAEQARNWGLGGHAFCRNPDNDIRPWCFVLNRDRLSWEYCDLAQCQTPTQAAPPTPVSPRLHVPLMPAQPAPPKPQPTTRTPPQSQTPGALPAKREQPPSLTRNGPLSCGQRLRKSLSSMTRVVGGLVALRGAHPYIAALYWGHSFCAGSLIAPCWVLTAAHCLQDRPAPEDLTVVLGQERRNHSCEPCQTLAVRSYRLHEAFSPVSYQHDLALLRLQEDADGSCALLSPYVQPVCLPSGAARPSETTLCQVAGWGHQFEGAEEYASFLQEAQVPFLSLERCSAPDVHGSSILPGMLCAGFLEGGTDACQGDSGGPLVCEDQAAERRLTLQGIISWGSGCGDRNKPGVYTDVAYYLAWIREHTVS

[11] = microbe, parasite or virus in culture; format: functional; conditions: Mycobacterium tuberculosis
[12] = biological target: Eukaryotic translation initiation factor 4E (Mus musculus, UniProt P63073); assay: blockers of eIF4G binding by eIF4E – biochemical, TR-FRET, dose response (AID 855); format: functional;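 further: potency for disrupting eIF4E binding to eIF4GI seen as loss of FRET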
[13] = biological target: G-protein coupled receptor 55 (Homo sapiens, UniProt Q9Y2T6); assay: inhibition of LPI-stimulated GPR55 beta-arrestin translocation – imaging, U2OS, beta-arrestin-GFP, LPI agonist, primary screen (AID 2013); format: functional;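 further: antagonist potency measured as reduced agonist-driven arrestin aggregation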
[14] = biological target: T4, Calpain-2 catalytic subunit (Sus scrofa, UniProt P43367); assay: m-calpain protease blockers, concentration series – biochemical, fluorogenic peptide substrate, dose response (AID 1420); format: functional
T4 sequence (P43367 whole entry): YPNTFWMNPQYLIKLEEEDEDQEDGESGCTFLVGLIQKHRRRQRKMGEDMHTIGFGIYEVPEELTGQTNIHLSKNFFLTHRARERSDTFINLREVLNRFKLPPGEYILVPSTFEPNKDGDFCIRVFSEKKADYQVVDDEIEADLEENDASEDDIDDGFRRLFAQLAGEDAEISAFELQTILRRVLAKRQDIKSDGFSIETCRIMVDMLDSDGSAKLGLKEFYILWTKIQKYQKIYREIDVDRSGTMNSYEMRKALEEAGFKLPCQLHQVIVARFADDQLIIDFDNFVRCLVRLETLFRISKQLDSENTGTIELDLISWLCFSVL

[15] = biological target: T2, Luciferin 4-monooxygenase; assay: inhibition of purified Photinus pyralis luciferase – biochemical, luminescence, dose response (AID 1891)
[16] = Luminescence Cell-Based Dose Confirmation HTS to Identify Inhibitors of Platelet Dense Granule Release. [Related pubchem assays: 1663 (Primary HTS), 1678 (Summary of Project)]; format: functional
[17] = test system: HeLa; assay: viability loss in HeLa cells – cell-based, 24 h, cherry-picked samples, cytotoxicity control, dose response (AID 504726); format: functional; conditions: Homo sapiens;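 further: potency for cytotoxicity as loss of luminescence signal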
[18] = biological target: T5, Microphthalmia-associated transcription factor (Homo sapiens, UniProt O75030); assay: reducers of TRPM1 reporter luminescence, concentration series – cell-based, SK-MEL-5, cherry-picked, set 3, MITF inhibitor project, dose response (AID 493073); format: functional;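 further: SK-MEL-5 melanoma cells with luciferase driven by the MITF target TRPM1 promoter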
T5 sequence (O75030 whole entry): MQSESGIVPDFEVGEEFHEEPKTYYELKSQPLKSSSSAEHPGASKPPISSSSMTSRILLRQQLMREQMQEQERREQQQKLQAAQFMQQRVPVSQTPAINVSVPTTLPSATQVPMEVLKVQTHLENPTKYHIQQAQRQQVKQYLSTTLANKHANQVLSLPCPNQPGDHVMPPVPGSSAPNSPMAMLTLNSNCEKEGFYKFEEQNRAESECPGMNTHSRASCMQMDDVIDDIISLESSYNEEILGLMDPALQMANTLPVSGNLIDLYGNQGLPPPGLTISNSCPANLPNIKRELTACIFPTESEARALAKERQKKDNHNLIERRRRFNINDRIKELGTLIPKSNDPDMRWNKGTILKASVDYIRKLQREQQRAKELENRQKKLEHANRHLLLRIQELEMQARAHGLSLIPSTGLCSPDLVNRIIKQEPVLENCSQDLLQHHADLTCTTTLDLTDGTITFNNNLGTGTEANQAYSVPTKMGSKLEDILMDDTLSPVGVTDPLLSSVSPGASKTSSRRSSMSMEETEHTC

[19] = test system: A-375; assay: proliferation inhibition in MITF-low A375 cells – cell-based, cherry-pick samples, set 2, counter-screen for MITF modulator project, dose response (AID 540335); format: functional; conditions: Homo sapiens
[20] = reduction of Shn3 3'UTR-driven luciferase in osteoblasts – cell-based, Clone20 osteoblasts, firefly luciferase, cherry-picked, dose response (AID 624132); format: functional;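 further: firefly luciferase luminescence from reporter carrying the Shn3 3'UTR in osteoblasts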
[21] = loss of viability in HepG2 cells – cell-based, CellTiter-Glo, cherry-picked, cytotoxicity control for Shn3 inhibitor project, dose response (AID 624134); format: functional
[22] = non-specific 3'UTR reporter inhibition in Clone20-Shn3RL – cell-based, Renilla luciferase, cherry-picked, counter-screen for Shn3 inhibitor project, dose response (AID 624133); format: functional
[23] = A549 cell cytotoxicity, dose response, cytotoxicity control, plate reader, cherry-pick, antagonist series (AID 743412); format: functional, cell-based
[24] = blockers of bursicon-stimulated LGR2 cAMP reporter – cell-based, HEK293, CRE-luciferase reporter, cherry pick, set 2, dose response (AID 743343); format: functional;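 further: transfected cells were stimulated with diluted bursicon conditioned medium after compound addition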
[25] = blockade of melanocortin 4 receptor signaling – cell-based, plate reader, cherry pick, counter-screen for LGR2 antagonist project, dose response (AID 743444); format: functional;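 further: transfected HEK 293 cells stimulated with alpha-MSH peptide; potency of inhibitors of the alpha-MSH evoked signal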
[26] = viability loss in HEK293 cells – cell-based, plate reader, cherry-picked samples, cytotoxicity control, dose response (AID 743446); format: functional
[27] = biological target: T6, Protein skinhead-1 (Caenorhabditis elegans, UniProt P34707); format: functional
T6 sequence (P34707 whole entry): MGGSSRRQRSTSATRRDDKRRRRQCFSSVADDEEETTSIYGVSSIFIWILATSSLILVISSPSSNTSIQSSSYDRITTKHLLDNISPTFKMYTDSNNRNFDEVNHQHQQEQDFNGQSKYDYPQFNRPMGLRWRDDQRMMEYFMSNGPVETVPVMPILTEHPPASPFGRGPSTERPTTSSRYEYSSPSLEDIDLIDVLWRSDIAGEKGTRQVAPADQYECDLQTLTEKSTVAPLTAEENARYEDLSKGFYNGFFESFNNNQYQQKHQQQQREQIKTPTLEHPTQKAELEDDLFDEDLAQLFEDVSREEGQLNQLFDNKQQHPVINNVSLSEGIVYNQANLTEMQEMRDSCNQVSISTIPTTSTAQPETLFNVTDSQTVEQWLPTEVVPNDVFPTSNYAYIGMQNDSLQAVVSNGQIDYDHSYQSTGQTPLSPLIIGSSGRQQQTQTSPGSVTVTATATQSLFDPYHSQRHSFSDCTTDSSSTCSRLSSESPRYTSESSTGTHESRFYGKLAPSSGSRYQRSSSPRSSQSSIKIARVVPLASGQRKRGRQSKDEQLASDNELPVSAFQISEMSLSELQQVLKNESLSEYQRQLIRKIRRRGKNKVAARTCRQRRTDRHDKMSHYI

[28] = THP-1 cell cytotoxicity, dose response, cytotoxicity control for non-replicating M. tuberculosis project (AID 489025); format: functional
[29] = Vero E6 cell cytotoxicity, dose response, cytotoxicity control for non-replicating M. tuberculosis project, secondary assay (AID 492998); format: functional, VeroE6; conditions: Vero C1008
[30] = cells; format: functional

T2 sequence (P08659 whole entry): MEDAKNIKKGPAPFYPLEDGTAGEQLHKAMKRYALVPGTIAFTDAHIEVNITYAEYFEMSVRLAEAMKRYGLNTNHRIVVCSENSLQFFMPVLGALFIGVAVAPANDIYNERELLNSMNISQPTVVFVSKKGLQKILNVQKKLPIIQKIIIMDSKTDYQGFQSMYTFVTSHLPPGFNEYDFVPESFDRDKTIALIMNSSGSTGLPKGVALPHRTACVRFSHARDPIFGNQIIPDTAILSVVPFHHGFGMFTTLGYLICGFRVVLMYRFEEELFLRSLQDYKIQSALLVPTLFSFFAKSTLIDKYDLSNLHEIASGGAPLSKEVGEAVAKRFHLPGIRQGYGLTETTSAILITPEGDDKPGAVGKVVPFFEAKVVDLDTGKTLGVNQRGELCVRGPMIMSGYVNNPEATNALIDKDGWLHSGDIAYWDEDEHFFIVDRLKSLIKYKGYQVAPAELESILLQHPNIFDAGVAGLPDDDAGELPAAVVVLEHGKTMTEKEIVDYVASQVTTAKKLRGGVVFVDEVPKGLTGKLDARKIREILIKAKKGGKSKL
Sequence of Eukaryotic translation initiation factor 4E (P63073 whole entry): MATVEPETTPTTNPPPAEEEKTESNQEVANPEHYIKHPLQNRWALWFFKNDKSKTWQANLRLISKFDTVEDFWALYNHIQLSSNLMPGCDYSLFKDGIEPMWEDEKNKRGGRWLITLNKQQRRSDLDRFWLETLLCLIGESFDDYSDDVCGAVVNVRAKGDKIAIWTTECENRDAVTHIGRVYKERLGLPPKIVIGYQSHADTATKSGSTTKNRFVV
Sequence of G-protein coupled receptor 55 (Q9Y2T6 whole entry): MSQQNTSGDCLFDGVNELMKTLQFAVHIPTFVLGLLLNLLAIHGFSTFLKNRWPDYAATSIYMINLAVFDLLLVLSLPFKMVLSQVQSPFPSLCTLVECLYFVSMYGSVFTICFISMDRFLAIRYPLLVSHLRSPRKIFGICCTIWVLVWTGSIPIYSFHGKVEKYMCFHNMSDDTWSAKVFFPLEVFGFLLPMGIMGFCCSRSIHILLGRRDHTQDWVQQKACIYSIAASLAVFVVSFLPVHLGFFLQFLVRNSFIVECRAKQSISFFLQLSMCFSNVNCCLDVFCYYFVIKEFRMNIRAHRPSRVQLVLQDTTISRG
Sequence of FAD-linked sulfhydryl oxidase ALR (P55789 whole entry): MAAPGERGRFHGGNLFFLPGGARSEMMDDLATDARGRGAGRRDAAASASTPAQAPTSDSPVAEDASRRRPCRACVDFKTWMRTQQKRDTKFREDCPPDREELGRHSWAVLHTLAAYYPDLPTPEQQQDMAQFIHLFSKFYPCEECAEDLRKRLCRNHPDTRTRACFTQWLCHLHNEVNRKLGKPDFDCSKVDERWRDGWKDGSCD

## CC(Nc1ccccc1N1CCCCC1)C(=O)N1CCc2ccccc21 (stereo not given)
[1]
  CC50: > 50 µM (active)
[2]
  IC50: 15.4 µM (active)

## O=C(C1=C[C@H](c2ccc(Br)cc2)C[C@H](OCCCCO)O1)N1CCN(Cc2ccc3c(c2)OCO3)CC1
[3]
  CC50: > 40 µM (active)
[4]
  EC50: > 195 µM (not active)
[5]
  EC50: 0.346 µM (active)
[6]
  EC50: > 60 µM (not active)

## Clc1c(CSc2nc3ccccc3o2)nc2ccccn12
[7]
  EC50: 9.33 µM (active)
[8]
  EC50: > 50 µM (not active)
[9]
  AC50: 7.37 µM (active)

## CC(=O)c1c(C)nn(CC(O)COc2ccc3c(c2)CCC3)c1C (stereo not given)
[10]
  IC50: > 50 µM (inactive)

## CCOC(=O)N1CCN(C(=O)C2CC(c3ccc(F)cc3)=NO2)CC1 (stereo not given)
[10]
  IC50: > 50 µM (inactive)

## CCCCOCCCn1c(-c2ccco2)nc2nc3ccccc3nc21
[11]
  CC50: > 40 µM (active)
[12]
  IC50: > 64 µM (inactive)

## c1ccc(CCNc2ncnc3scc(C4COc5ccccc5O4)c23)cc1 (stereo not given)
[13]
  IC50: 3.59 µM (active)
[14]
  IC50: 10.4 µM (not active)

## O=C1CC(N2CCN(Cc3ccc4c(c3)OCO4)CC2)C(=O)N1c1cccc(Cl)c1 (stereo not given)
[12]
  IC50: > 64 µM (inactive)

## COc1cc(SC)ccc1C(=O)Nc1nc(C)cs1
[4]
  EC50: 0.845 µM (active)
[15]
  EC50: 0.511 µM (active)
[16]
  EC50: 7.22 µM (active)
[17]
  AC50: 42.3 µM (active)
[18]
  AC50: 4.81 µM (active)
[19]
  AC50: 47.4 µM (active)
[20]
  AC50: 7.09 µM (active)
[21]
  AC50: > 70 µM (inactive)
[22]
  AC50: 35.2 µM (active)
[23]
  AC50: 43.9 µM (active)
[24]
  AC50: 0.49 µM (active)
[25]
  AC50: 0.491 µM (active)
[26]
  AC50: 24.9 µM (active)

## COc1cc(/C=C/c2cc(C(=O)O)c3ccccc3n2)ccc1OC(F)F
[1]
  CC50: 35.7 µM (active)
[2]
  IC50: 28.6 µM (active)

## Cc1ccc(-c2nnc(O)c(O)c2N=Nc2ccccc2)cc1
[3]
  CC50: > 40 µM (active)

## Cc1nc2ccc(S(=O)(=O)NC(C(=O)Nc3nc4ccc(Cl)cc4s3)C(C)C)cc2s1 (stereo not given)
[13]
  IC50: 0.894 µM (active)

## c1ccc(-c2nc3cc4ccccc4cc3[nH]2)nc1
[7]
  EC50: 6.86 µM (active)
[8]
  EC50: 14.6 µM (active)
[27]
  IC50: 9.19 µM (active)

## Cc1c(C(=O)N2CCN(S(=O)(=O)c3ccccc3F)CC2)oc2c(Cl)cccc12
[1]
  CC50: 31.6 µM (active)
[27]
  IC50: > 100 µM (inactive)
[2]
  IC50: > 50 µM (active)

## NC1=NC(=O)/C(=C\c2ccsc2)S1
[12]
  IC50: 50 µM (inactive)

## Cc1noc(C)c1COC(=O)Cc1ccc(Cl)cc1
[10]
  IC50: > 50 µM (inactive)

## COc1ccccc1CNC(=O)c1ccc(SC)cc1OC
[1]
  CC50: > 50 µM (active)
[3]
  CC50: > 40 µM (active)

## Cc1cc(NC(=O)CCC(=O)N(CCC(C)C)C(C(=O)NC2CCCC2)c2cccnc2)no1 (stereo not given)
[17]
  AC50: > 350 µM (inactive)

## O=C(N/N=C\c1ccc([N+](=O)[O-])o1)c1cncc(Br)c1
[5]
  EC50: 0.389 µM (active)
[6]
  EC50: > 60 µM (not active)
[17]
  AC50: > 350 µM (inactive)
[28]
  CC50: 27.4 µM (active)
[29]
  CC50: > 20 µM (active)
[30]
  IC50: 3.94 µM (active)

From ChEMBL document CHEMBL1201862, “PubChem BioAssay data set” (2004)
